Test results reported in ChEMBL document CHEMBL3885881, “DrugMatrix”.

Species: Rattus norvegicus
Test: DrugMatrix - Regimen: Daily Repeat
Format: toxicity, organism-based, Sprague-Dawley
Set-up: regimen Daily Repeat, gender Male, age 6-8 weeks
Details: in vivo, iv, vehicle 100 % SALINE; for ABSOLUTE BASOPHIL / ABSOLUTE EOSINOPHIL / ABSOLUTE LYMPHOCYTE / ABSOLUTE MONOCYTE / ABSOLUTE SEGMENTED NEUTROPHIL / BASOPHIL / EOSINOPHIL / ERYTHROCYTE COUNT / HEMATOCRIT / HEMOGLOBIN / LEUKOCYTE COUNT / LYMPHOCYTE / MEAN CORPUSCULAR HEMOGLOBIN / MEAN CORPUSCULAR HEMOGLOBIN CONCENTRATION / MEAN CORPUSCULAR VOLUME / MONOCYTE / NEUTROPHIL / NUCLEATED RED BLOOD CELLS / PLATELET COUNT: tissue Blood; for ALANINE AMINOTRANSFERASE / ALBUMIN / ALKALINE PHOSPHATASE / ASPARTATE AMINOTRANSFERASE / BLOOD UREA NITROGEN / CARBON DIOXIDE / CHLORIDE / CHOLESTEROL / CREATINE PHOSPHOKINASE / CREATININE / GLUCOSE / LACTATE DEHYDROGENASE / LIPASE / PHOSPHORUS / POTASSIUM / SODIUM / TOTAL BILIRUBIN / TOTAL PROTEIN / URIC ACID: tissue Plasma
[1] = 7 mg/kg, 120 h, dose level Low, time 5 day
[2] = 41 mg/kg, 72 h, dose level High, time 3 day
[3] = 41 mg/kg, 120 h, dose level High, time 5 day

## CC(=O)N[C@@H]1[C@H](Oc2c3cc4cc2Oc2ccc(cc2Cl)[C@@H](O[C@@H]2O[C@@H](CO)[C@@H](O)[C@H](O)[C@@H]2NC(C)=O)[C@@H]2NC(=O)[C@H](NC(=O)[C@@H]4NC(=O)[C@H]4NC(=O)[C@@H](Cc5ccc(c(Cl)c5)O3)NC(=O)[C@H](N)c3ccc(O)c(c3)Oc3cc(O)cc4c3)c3ccc(O)c(c3)-c3c(O[C@H]4O[C@H](CO)[C@@H](O)[C@@H](O)[C@@H]4O)cc(O)cc3[C@@H](C(=O)O)NC2=O)O[C@@H](CO)[C@@H](O)[C@@H]1O
[1]
  ABSOLUTE BASOPHIL: 0 CELLS/uL
  ABSOLUTE EOSINOPHIL: 166 CELLS/uL
  ABSOLUTE LYMPHOCYTE: 15568 CELLS/uL
  ABSOLUTE MONOCYTE: 230.67 CELLS/uL
  ABSOLUTE SEGMENTED NEUTROPHIL: 1568.67 CELLS/uL
  BASOPHIL: 0%
  EOSINOPHIL: 1%
  ERYTHROCYTE COUNT: 5.77 x10E6/uL
  HEMATOCRIT: 36.27%
  HEMOGLOBIN: 13.63 G/DL
  LEUKOCYTE COUNT: 17.53 x10E3/uL
  LYMPHOCYTE: 88.67%
  MEAN CORPUSCULAR HEMOGLOBIN: 23.67 pg
  MEAN CORPUSCULAR HEMOGLOBIN CONCENTRATION: 37.57 G/DL
  MEAN CORPUSCULAR VOLUME: 62.97 fL
  MONOCYTE: 1.33%
  NEUTROPHIL: 9%
  NUCLEATED RED BLOOD CELLS: 0 /100WBC
  PLATELET COUNT: 1190.67 x10E3/uL
  ALANINE AMINOTRANSFERASE: 40.67 u/L
  ALBUMIN: 4.23 G/DL
  ALKALINE PHOSPHATASE: 395 u/L
  ASPARTATE AMINOTRANSFERASE: 84.33 u/L
  BLOOD UREA NITROGEN: 19.33 mg/dL
  CARBON DIOXIDE: 24 mmol/L
  CHLORIDE: 106.67 MEQ/L
  CHOLESTEROL: 59.33 mg/dL
  CREATINE PHOSPHOKINASE: 389.67 u/L
  CREATININE: 0.18 mg/dL
  GLUCOSE: 149 mg/dL
  LACTATE DEHYDROGENASE: 466.67 u/L
  LIPASE: 8.33 u/L
  PHOSPHORUS: 11.47 mg/dL
  POTASSIUM: 5.99 MEQ/L
  SODIUM: 144.47 MEQ/L
  TOTAL BILIRUBIN: 0.2 mg/dL
  TOTAL PROTEIN: 6.03 G/DL
  URIC ACID: 1.17 mg/dL
[2]
  ABSOLUTE BASOPHIL: 0 CELLS/uL
  ABSOLUTE EOSINOPHIL: 126.67 CELLS/uL
  ABSOLUTE LYMPHOCYTE: 16661.33 CELLS/uL
  ABSOLUTE MONOCYTE: 515.67 CELLS/uL
  ABSOLUTE SEGMENTED NEUTROPHIL: 1929.67 CELLS/uL
  BASOPHIL: 0%
  EOSINOPHIL: 0.67%
  ERYTHROCYTE COUNT: 5.53 x10E6/uL
  HEMATOCRIT: 35.03%
  HEMOGLOBIN: 13.17 G/DL
  LEUKOCYTE COUNT: 19.23 x10E3/uL
  LYMPHOCYTE: 86.67%
  MEAN CORPUSCULAR HEMOGLOBIN: 23.83 pg
  MEAN CORPUSCULAR HEMOGLOBIN CONCENTRATION: 37.6 G/DL
  MEAN CORPUSCULAR VOLUME: 63.4 fL
  MONOCYTE: 2.67%
  NEUTROPHIL: 10%
  NUCLEATED RED BLOOD CELLS: 0 /100WBC
  PLATELET COUNT: 1404 x10E3/uL
  ALANINE AMINOTRANSFERASE: 41.67 u/L
  ALBUMIN: 4.13 G/DL
  ALKALINE PHOSPHATASE: 271.33 u/L
  ASPARTATE AMINOTRANSFERASE: 67.33 u/L
  BLOOD UREA NITROGEN: 18.33 mg/dL
  CARBON DIOXIDE: 27 mmol/L
  CHLORIDE: 102 MEQ/L
  CHOLESTEROL: 61.67 mg/dL
  CREATINE PHOSPHOKINASE: 181 u/L
  CREATININE: 0.21 mg/dL
  GLUCOSE: 153.67 mg/dL
  LACTATE DEHYDROGENASE: 125.67 u/L
  LIPASE: 8.33 u/L
  PHOSPHORUS: 11.33 mg/dL
  POTASSIUM: 6.69 MEQ/L
  SODIUM: 143.47 MEQ/L
  TOTAL BILIRUBIN: 0.2 mg/dL
  TOTAL PROTEIN: 5.87 G/DL
  URIC ACID: 1.37 mg/dL
[3]
  ABSOLUTE BASOPHIL: 0 CELLS/uL
  ABSOLUTE EOSINOPHIL: 0 CELLS/uL
  ABSOLUTE LYMPHOCYTE: 12482 CELLS/uL
  ABSOLUTE MONOCYTE: 440.67 CELLS/uL
  ABSOLUTE SEGMENTED NEUTROPHIL: 1610.67 CELLS/uL
  BASOPHIL: 0%
  EOSINOPHIL: 0%
  ERYTHROCYTE COUNT: 5.88 x10E6/uL
  HEMATOCRIT: 36.7%
  HEMOGLOBIN: 13.8 G/DL
  LEUKOCYTE COUNT: 14.53 x10E3/uL
  LYMPHOCYTE: 86%
  MEAN CORPUSCULAR HEMOGLOBIN: 23.47 pg
  MEAN CORPUSCULAR HEMOGLOBIN CONCENTRATION: 37.6 G/DL
  MEAN CORPUSCULAR VOLUME: 62.47 fL
  MONOCYTE: 3%
  NEUTROPHIL: 11%
  NUCLEATED RED BLOOD CELLS: 0 /100WBC
  PLATELET COUNT: 1300.33 x10E3/uL
  ALANINE AMINOTRANSFERASE: 57.67 u/L
  ALBUMIN: 4.3 G/DL
  ALKALINE PHOSPHATASE: 395 u/L
  ASPARTATE AMINOTRANSFERASE: 79.33 u/L
  BLOOD UREA NITROGEN: 18.67 mg/dL
  CARBON DIOXIDE: 29.67 mmol/L
  CHLORIDE: 102.33 MEQ/L
  CHOLESTEROL: 69.67 mg/dL
  CREATINE PHOSPHOKINASE: 275 u/L
  CREATININE: 0.19 mg/dL
  GLUCOSE: 177 mg/dL
  LACTATE DEHYDROGENASE: 229 u/L
  LIPASE: 9 u/L
  PHOSPHORUS: 13.2 mg/dL
  POTASSIUM: 6.79 MEQ/L
  SODIUM: 148.17 MEQ/L
  TOTAL BILIRUBIN: 0.17 mg/dL
  TOTAL PROTEIN: 6.3 G/DL
  URIC ACID: 1.83 mg/dL
